Assay results published in ChEMBL document CHEMBL5303304, “EUbOPEN Chemogenomics Library - IncuCyte” (2023).

Experiments:
Format in all cases: toxicity, cell-based
Fibroblast = experiment: Incucyte cell viability with human fibroblast; details: 10 µM, compound concentration 10 uM
HEK-293T = experiment: Incucyte cell viability with HEK293T; details: human, 10 µM, compound concentration 10 uM
U2OS = experiment: Incucyte cell viability with U2OS; details: human, 10 µM, compound concentration 10 uM
Note: unitless GR value; below 1 slowed growth and below 0 cell loss.

Row | SMILES | Growth Rate (Fibroblast; 0 h, replicate number 2) | Growth Rate (Fibroblast; 6 h, replicate number 1) | Growth Rate (Fibroblast; 24 h, replicate number 1) | Growth Rate (HEK-293T; 0 h, replicate number 1) | Growth Rate (HEK-293T; 0 h, replicate number 2) | Growth Rate (HEK-293T; 6 h, replicate number 1) | Growth Rate (HEK-293T; 18 h, replicate number 1) | Growth Rate (HEK-293T; 24 h, replicate number 1) | Growth Rate (U2OS; 6 h, replicate number 1) | Growth Rate (U2OS; 12 h, replicate number 1) | Growth Rate (U2OS; 18 h, replicate number 1) | Growth Rate (U2OS; 24 h, replicate number 1) | Growth Rate (Fibroblast; 6 h, replicate number 2) | Growth Rate (Fibroblast; 24 h, replicate number 2) | Growth Rate (HEK-293T; 12 h, replicate number 1) | Growth Rate (U2OS; 12 h, replicate number 2) | Growth Rate (U2OS; 18 h, replicate number 2) | Growth Rate (Fibroblast; 12 h, replicate number 2) | Growth Rate (Fibroblast; 18 h, replicate number 2) | Growth Rate (Fibroblast; 0 h, replicate number 1) | other results
1 | O=C(O)CCCCN(CCc1ccccc1OCc1ccc(CCc2ccccc2)cc1)Cc1ccc(C(=O)O)cc1 | -0.44 | 0.92 | 0.98 | 0.96 | 0.47 | 0.91 | 0.87 | 0.99 | 0.32 | 0.91 | 0.83 | 0.86 |  |  |  |  |  |  |  |  | Growth Rate (U2OS; 0 h, replicate number 1): 0.14
2 | O=C(O)C[C@H]1CC[C@H](c2ccc(NC(=O)c3nnc(Nc4ccc(F)c(F)c4)o3)cc2)CC1 |  |  |  | 0.29 | -0.23 | 0.74 | 0.76 | 0.86 |  |  |  |  | 0.97 | 0.99 | 0.69 | 0.72 | 0.93 |  |  |  | Growth Rate (U2OS; 6 h, replicate number 2): 0.7; Growth Rate (U2OS; 24 h, replicate number 2): 0.96
3 | O=C(O)c1ccc(OCCCc2ccc(OCCCCOC3CCCCC3)cc2)c(C(=O)NC2CCCC(C(=O)O)C2)c1 (configuration not stated) |  |  |  | -0.01 |  | 0.96 |  |  |  |  |  | 0.89 | -0.02 | 0.73 | 0.94 |  |  | 0.19 | 0.41 |  | Growth Rate (HEK-293T; 18 h, replicate number 2): 0.94; Growth Rate (HEK-293T; 24 h, replicate number 2): 0.92
4 | COP(=O)(CCC(N)C(=O)O)Oc1cccc(CC(=O)O)c1 (configuration not stated) | -0.57 | 0.49 | 0.74 | 0.66 |  |  | 0.94 | 0.92 | 0.8 |  |  |  |  |  | 0.97 | 0.91 |  |  |  | -1 | Growth Rate (Fibroblast; 12 h, replicate number 1): 0.92; Growth Rate (Fibroblast; 18 h, replicate number 1): 0.86; Growth Rate (U2OS; 0 h, replicate number 1): 0.98; Growth Rate (U2OS; 24 h, replicate number 2): 0.93
5 | COCc1c(-c2cc3cc(C)cc(OC)c3s2)c2c(N)ncnn2c1CN[C@@H]1CCNC1=O |  | 0.36 | 0.46 | -0.25 | -0.02 | 0.47 | 0.61 | 0.62 | 0.62 | 0.45 | 0.84 | 0.44 |  | 0.98 | 0.43 | 0.77 | 0.85 |  | 0.77 | -1 | Growth Rate (Fibroblast; 12 h, replicate number 1): 0.6; Growth Rate (Fibroblast; 18 h, replicate number 1): 0.59; Growth Rate (HEK-293T; 6 h, replicate number 2): 0.58; Growth Rate (HEK-293T; 12 h, replicate number 2): 0.2; Growth Rate (HEK-293T; 18 h, replicate number 2): 0.49; Growth Rate (HEK-293T; 24 h, replicate number 2): 0.65; Growth Rate (U2OS; 0 h, replicate number 2): 0.73; Growth Rate (U2OS; 24 h, replicate number 2): 0.9
6 | CCn1c(=O)c2c(C)c(C(=O)N3CCC(O)CC3)sc2n(CCC(F)(F)F)c1=O | 0.25 |  |  | 0.93 | 0.32 | 0.41 | 0.74 | 0.83 |  |  |  |  |  | 0.97 | 0.79 | 0.97 | 0.97 |  |  |  | Growth Rate (HEK-293T; 18 h, replicate number 2): 0.86; Growth Rate (U2OS; 6 h, replicate number 2): 0.72
7 | CC(=O)c1c(C)c2cnc(Nc3ccc(N4CCN(CCOCCOCCOCCNC(=O)COc5cccc6c5C(=O)N(C5CCC(=O)NC5=O)C6=O)CC4)cn3)nc2n(C2CCCC2)c1=O (configuration not stated) | 0.18 |  |  | 0.95 |  |  |  |  |  | 0.99 |  |  |  | 0.89 |  | 0.93 |  | 0.92 |  |  | 
8 | O=C(O)c1ccc2c(c1)nc(NCc1ccccc1)c1ncncc12 | -0.94 |  |  | -0.17 | -0.9 |  |  |  |  |  |  |  |  |  |  |  |  |  |  | -0.98 | Growth Rate (Fibroblast; 12 h, replicate number 1): 0.74; Growth Rate (U2OS; 0 h, replicate number 1): 0.98
9 | COc1ccc(-c2c(-c3ccccc3)oc3ncnc(O[C@H](C)CCCCC(=O)O)c23)cc1 |  | 0.79 | 0.88 | 0.1 | 0.14 |  |  |  |  | 0.94 |  |  | -0.43 |  |  |  |  | 0.48 | 0.98 | -1 | 
10 | NC(=O)OC[C@H](NC(=O)Cn1nc(-c2ccc(Cl)cc2)n(C[C@H](O)C(F)(F)F)c1=O)c1cccc(C(F)(F)F)c1 | 0.27 | 0.56 | 0.84 | 0.72 | -0.43 |  | 0.84 | 0.71 | 0.83 | 0.85 |  | 0.9 | -0.17 | 0.7 | 0.8 |  |  | 0.75 | 0.65 |  | Growth Rate (Fibroblast; 12 h, replicate number 1): 0.83; Growth Rate (Fibroblast; 18 h, replicate number 1): 0.71; Growth Rate (HEK-293T; 18 h, replicate number 2): 0.83; Growth Rate (HEK-293T; 24 h, replicate number 2): 0.79; Growth Rate (U2OS; 0 h, replicate number 1): 0.95
11 | CCS(=O)(=O)Nc1cccc(Oc2cncc(Nc3ccc(I)cc3F)c2C(N)=O)c1 |  | 0.99 |  | 0.82 |  | 0.77 | 0.77 | 0.74 | 0.71 |  | 0.92 | 0.84 |  |  | 0.82 | 0.76 |  |  |  |  | Growth Rate (HEK-293T; 12 h, replicate number 2): 0.71; Growth Rate (HEK-293T; 18 h, replicate number 2): 0.58; Growth Rate (HEK-293T; 24 h, replicate number 2): 0.69; Growth Rate (U2OS; 6 h, replicate number 2): 0.62; Growth Rate (U2OS; 24 h, replicate number 2): 0.98
12 | C1CCC(NC2CCCCC2)CC1.Cc1cc(Cl)ccc1S(=O)(=O)NC[C@H]1C2CCC(CC2)[C@@H]1/C=C\CCCC(=O)O | -0.12 | 0.25 |  | 0.61 |  |  |  |  |  |  |  |  | 0.75 |  |  |  | 0.99 | 0.97 | 0.9 |  | 
13 | Oc1c(-c2cccnc2)cnn1-c1ccccn1 | 0.86 |  | 0.87 | 0.54 | -0.2 | 0.91 |  |  | 0.87 |  |  | 0.84 |  | 0.59 |  |  |  |  | 0.44 |  | 
14 | CC[C@@H](CO)Nc1nc(Nc2cccc(NC(=O)C(C)(C)C)c2)ncc1F | 0.61 |  |  | 0.29 |  |  |  | 0.96 | 0.56 | 0.66 | 0.87 | 0.91 |  |  | 0.87 | 0.83 | 0.86 |  |  |  | Growth Rate (U2OS; 0 h, replicate number 2): 0.94; Growth Rate (U2OS; 6 h, replicate number 2): 0.8; Growth Rate (U2OS; 24 h, replicate number 2): 0.89
15 | Cc1c(N2CCCC2)nc2ccc(Br)cc2c1C(=O)NC[C@H](CCC(=O)O)c1ccccc1Cl.Cl.O | -0.4 | 0.4 |  | 0.22 | -0.18 |  |  |  | 0.65 | 0.97 | 0.93 | 0.91 |  |  |  |  | 0.99 | 0.93 |  | -1 | Growth Rate (U2OS; 0 h, replicate number 2): -0.04; Growth Rate (U2OS; 24 h, replicate number 2): 0.92
16 | CC(C)(C)c1cc(NC(=O)c2csc(Nc3ccc(Cl)cc3)n2)no1 |  | 0.89 | 0.8 | 0.27 | -0.44 |  | 0.94 | 0.97 |  |  |  | -0.59 |  | 0.87 |  |  |  | 0.46 | 0.74 | -1 | Growth Rate (HEK-293T; 6 h, replicate number 2): 0.84; Growth Rate (HEK-293T; 12 h, replicate number 2): 0.99
17 | CC(C)(C)OC(=O)CN1C(=O)c2c(OCC(=O)O)cccc2Oc2ccc(C(F)(F)F)cc21 |  | 0.95 |  | 0.31 | -0.65 | 0.69 | 0.76 | 0.75 | 0.75 | 0.85 | 0.83 | 0.89 | -0.59 |  | 0.61 |  |  | 0.43 | 0.87 |  | Growth Rate (U2OS; 0 h, replicate number 1): 0.59
18 | C[C@@H]1CC(=O)N(C2CC2)N=C1c1ccc(NC(=O)N2Cc3ccncc3C2)cc1 | -0.77 | 0.8 |  | 0.95 | -0.07 | 0.41 | 0.46 | 0.28 | 0.59 | 0.94 |  | 0.95 | -0.07 | 0.81 | 0.41 |  |  | 0.57 | 0.85 | -0.95 | Growth Rate (HEK-293T; 6 h, replicate number 2): 0.39; Growth Rate (HEK-293T; 12 h, replicate number 2): 0.67; Growth Rate (HEK-293T; 18 h, replicate number 2): 0.53; Growth Rate (HEK-293T; 24 h, replicate number 2): 0.32
